Results on 21 molecules are retold here after ChEMBL document CHEMBL5233235, “Chalcone hybrids as privileged scaffolds in antimalarial drug discovery: A key review” (Eur J Med Chem, 2020).

In brackets after ≈: the same amount, converted by molar mass.

In data set [1] the test system is Plasmodium falciparum. The data set is described as follows: Antimalarial activity against Plasmodium falciparum. The class given is functional, organism-based.
In data set [2] the test system is Plasmodium falciparum. The data set is described as follows: Antimalarial activity against chloroquine-sensitive Plasmodium falciparum 3D7. The class given is functional, organism-based.
Data set [3] has as its system Plasmodium falciparum. Nature of the data set: Antimalarial activity against Plasmodium falciparum 3D7. The class given is functional, organism-based.
Data set [4] has as its system Plasmodium falciparum. Nature of the data set: Antiplasmodial activity against Plasmodium falciparum 3D7 incubated for 30 hrs followed by addition of [3H]-hypoxanthine and measured after 18 hrs by liquid scintillation counting method. The class given is functional, organism-based.
Data set [5] concerns Plasmodium falciparum. Nature of the data set: Antiparasitic activity against Plasmodium falciparum W2 incubated for 48 hrs by flow cytometry based analysis. The class given is functional, organism-based. As to conditions: W2, 48 h. A general note: A flow cytometer gives signals particle by particle.
The test system of data set [6] is Plasmodium falciparum. The data set is described as follows: Antimalarial activity against chloroquine-resistant Plasmodium falciparum W2 incubated for 48 hrs by microscopic analysis. The class given is functional, organism-based. As to conditions: W2, 48 h.
The test system of data set [7] is Plasmodium falciparum. The data set is described as follows: Antimalarial activity against chloroquine-sensitive Plasmodium falciparum 3D7 by candle jar method. It counts as functional, organism-based.
The subject of a further data set is Plasmodium. The data set is described as follows: Antimalarial activity against Plasmodium falciparum K1 by [3H]-hypoxanthine uptake assay. The class given is functional, organism-based.
Data set [8] can be described thus: Cytotoxicity against human HepG2 cells. The class given is toxicity, cell-based.
Data set [9] has as its system Plasmodium falciparum. Nature of the data set: Antimalarial activity against Plasmodium falciparum ATCC 30932 incubated for […]. The class given is functional, organism-based.
Data set [10] in a line: Cytotoxicity against mouse FM3A cells incubated for 48 hrs. The class given is toxicity, cell-based.
Data set [11] is described as follows: Selectivity index, ratio of EC50 for cytotoxicity against mouse FM3A cells to EC50 for antimalarial activity against Plasmodium falciparum ATCC 30932. The class given is toxicity, cell-based. As to conditions: read-out: Ratio EC50.
The mark [12] stands for this setting: Plasmodium falciparum, 3D7, read-out: IC50.

The molecule `O=C(/C=C/c1c[nH]c2ccccc12)c1ccccc1O` had an IC50 in the data set with Plasmodium falciparum [1] of 2.1 µM. Consider `O=C(/C=C/c1ccc([N+](=O)[O-])cc1)c1c(O)c2ccccc2oc1=O`, for which, in the data set with Plasmodium falciparum [2], the IC50 is less than 5 µg/mL. For `COc1cc(/C=C/C(=O)c2c[n+]([O-])c3ccccc3[n+]2[O-])cc(OC)c1OC`, the IC50 with Plasmodium falciparum [1] is 6.2 µM. `COc1ccc(C(=O)/C=C/c2ccc(O)c(O)c2)c(O)c1` [CALYTHROPSIN] returned an IC50 in the data set with Plasmodium falciparum [3] of 0.59 µM. Take `CCO/C(C)=N/Oc1ccc(C(=O)/C=C/c2ccc(OCc3ccccc3)cc2)cc1`: in the data set with Plasmodium falciparum [4] (setting [12]), the IC50 was 12 µg/mL (≈ 28.9 µM). Usually MIC stands for the smallest concentration in the dilution series that meets the test's criterion for growth inhibition. A higher MIC goes with a less susceptible organism. `Cc1cccc(C(=O)/C=C(\I)c2cc3ccccc3nc2Cl)c1O`: in the data set with Plasmodium falciparum [1], the MIC turned out to be 50 µg/mL (≈ 111 µM). Turning to `COc1cc(/C=C/C(=O)c2ccc(NS(=O)(=O)c3cc(Cl)ccc3Cl)cc2)cc(OC)c1OC`, in the data set on Plasmodium falciparum [5], the IC50 worked out at 0.48 µM. As to `CCO/C(C)=N/Oc1ccc(C(=O)/C=C/c2cc(OC)ccc2OC)cc1`, in the data set with Plasmodium falciparum [4] (setting [12]), the IC50 amounted to 6 µg/mL (≈ 16.2 µM). Consider `O=C(/C=C/c1cccc(S(=O)(=O)N2CCOCC2)c1)c1ccccc1`, for which the IC50 with Plasmodium falciparum [6] was found to be 2.06 µM. As for `COc1ccc(/C=C/C(=O)c2ccc(-n3ncc4ccccc43)cc2)c(OC)c1`, the IC50 in the data set on Plasmodium falciparum [7] worked out at 1.1 µg/mL (≈ 2.86 µM). The molecule `O=C(/C=C/c1cc2ccccc2nc1Cl)c1cc(Br)cc(Cl)c1O` came in with an MIC with Plasmodium falciparum [1] of 10 µg/mL (≈ 23.6 µM).

In turn, `CCc1ccc(/C=C/C(=O)c2ccc(OC)cc2OC)cc1` showed an IC50 in the data set on Plasmodium of less than 5 µM. `O=C(/C=C/c1ccc(F)cc1F)c1ccc(NS(=O)(=O)c2cc(Cl)ccc2Cl)cc1` came in with an IC50 in the data set with Plasmodium falciparum [5] of 0.67 µM. For `O=C(/C=C/c1ccc2ccccc2c1)c1c[n+]([O-])c2ccccc2[n+]1[O-]`, the IC50 in the data set with Plasmodium falciparum [1] came out at 5.8 µM.

Regarding `CCO/C(C)=N/Oc1ccc(/C=C/C(=O)c2ccc3ccccc3c2)cc1`, the IC50 with Plasmodium falciparum [4] (setting [12]) came out at 12 µg/mL (≈ 33.4 µM); in [8] it was 54 µg/mL (≈ 150 µM).

Regarding `CCO/C(C)=N/Oc1ccc(C(=O)/C=C/c2cc(OC)c(OC)c(OC)c2)cc1`, the IC50 with Plasmodium falciparum [4] (setting [12]) came to 12 µg/mL (≈ 30 µM); in data set [8], 20 µg/mL (≈ 50.1 µM).

For `COc1ccc2nc(Cl)c(/C=C/C(=O)c3cc(Br)cc(Cl)c3O)cc2c1`, the MIC against Plasmodium falciparum [1] worked out at 10 µg/mL (≈ 22.1 µM). The EC50 is the concentration at which the effect is half-maximal. A low value points to higher potency in that assay. With `COc1ccc(C(=O)/C=C/c2ccc(OC)c(OC)c2)c(O)c1`, in the data set on Plasmodium falciparum [9], the EC50 came out at 1 µg/mL (≈ 3.18 µM). Further, the EC50 at 48 h in data set [10] was more than 3.3 µg/mL. Moreover, the selectivity ratio in data set [11] was more than 3.3. In the data set with Plasmodium, `COc1ccc(C(=O)/C=C/c2cnc3ccccc3c2)c(OC)c1` yielded an IC50 of less than 5 µM. Still for that read-out and setting: then `COc1ccc(/C=C/C(=O)c2ccc(OC)cc2OC)c(OC)c1`, with less than 5 µM. Take `C[C@@H]1CC[C@H]2[C@@H](C)C(=O)O[C@@H]3O[C@@]4(C)CC[C@@H]1[C@]32OO4` [ARTEMISININ]: in the data set with Plasmodium falciparum [4], the IC50 is reported as 0.021 uM/ml.
